Legend:
[1] = biological target: T1, hPPARδ (Homo sapiens, UniProt Q03181); assay: Gal4-hPPARδ chimera transactivation in COS-7 cells (luciferase); type: cell-based; conditions: induction factor standardised to an internal reference, read-out: % hGal4-PPAR transactivation (10 μM) delta
T1 construct: fragments of DNA amplified by PCR corresponding to the DEF domains of the human PPARα, PPARγ PPARδ nuclear receptors; expressed in transfected cells; host or cells: COS-7 (monkey kidney fibroblast line)
T1 sequence (Q03181 211-439 limits assumed): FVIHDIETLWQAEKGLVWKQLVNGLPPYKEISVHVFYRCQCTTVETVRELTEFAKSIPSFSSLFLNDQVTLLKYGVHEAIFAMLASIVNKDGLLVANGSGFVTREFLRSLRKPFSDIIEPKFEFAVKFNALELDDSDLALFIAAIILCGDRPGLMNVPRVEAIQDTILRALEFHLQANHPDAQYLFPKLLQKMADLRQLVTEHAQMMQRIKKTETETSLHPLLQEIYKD
Description: (§1) The PPAR activation was evaluated in vitro on a monkey kidney fibroblast line (COS-7) by measuring the transcriptional activity of chimeras constituted of the DNA binding domain of the Gal4 transcription factor of yeast and of the binding domain to the ligand of the different PPARs. The compounds were tested at doses between 0.01 and 100 μM on Gal4-PPARα, γ, δ chimeras. The induction factor (ratio between the luminescence induced by the compound and the luminescence induced by the control) was measured for each condition: the higher this factor, the more the compound has PPAR-activating properties.
(§2) The COS-7 cells from ATCC were cultivated in a DMEM medium supplemented with 10% (vol/vol) of foetal calf serum, 100 U/ml penicillin (Gibco, Paisley, UK) and 2 mM L-Glutamine (Gibco, Paisley, UK). The cells were incubated at 37° C. in a humid atmosphere containing 5% CO2.
(§3) The Gal4(RE)_TkpGL3, pGal4-hPPARα, pGal4-hPPARγ, pGal4-hPPARδ and pGal4-φ plasmids have been described in the literature (Raspe, Madsen et al. 1999). The pGal4-hPPARα, pGal4-hPPARγ and pGal4-hPPARδ constructs were obtained by cloning in the pGal4-φ vector of fragments of DNA amplified by PCR corresponding to the DEF domains of the human PPARα, PPARγ PPARδ nuclear receptors.
(§4) COS-7 cells were plated in 96 wells plates (5×10^4 cells/well) and transfected, in the presence of 10% foetal calf serum and 150 ng DNA per well, with a pGal4-PPAR/Gal4(RE)_TkpGL3 ratio of 1/10. The cells were then incubated for 24 hours with the compounds to be tested, without serum. At the end of the experiment, the cells were lysed and the luciferase activities were determined by means of Steady Glow Luciferase (Promega) according to the supplier's recommendations.
(§5) The inventive compounds were tested at 10 μM on the 3 PPAR isoforms. The results obtained are detailed in table (1). The transactivation measured is expressed as a response ratio versus an internal reference for each of the isoforms.
(§6) The compounds were tested at 10 μM on the Gal4-PPARα, γ, δ chimeras. The induction factor, i.e. the ratio between the luminescence induced by the compound and the luminescence induced by the control, was measured for each condition. It was then standardised in comparison to an internal reference and the results were then expressed in percentages : the higher the activation percentage, the more the compound has PPAR-activating properties.

[2] = biological target: T2, hPPARγ (Homo sapiens, UniProt P37231); assay: Gal4-hPPARγ chimera transactivation in COS-7 cells (luciferase); type: cell-based; conditions: induction factor standardised to an internal reference, read-out: % hGal4-PPAR transactivation (10 μM) gamma
T2 construct: fragments of DNA amplified by PCR corresponding to the DEF domains of the human PPARα, PPARγ PPARδ nuclear receptors; expressed in transfected cells; host or cells: COS-7 (monkey kidney fibroblast line)
T2 sequence (P37231 238-503 limits assumed): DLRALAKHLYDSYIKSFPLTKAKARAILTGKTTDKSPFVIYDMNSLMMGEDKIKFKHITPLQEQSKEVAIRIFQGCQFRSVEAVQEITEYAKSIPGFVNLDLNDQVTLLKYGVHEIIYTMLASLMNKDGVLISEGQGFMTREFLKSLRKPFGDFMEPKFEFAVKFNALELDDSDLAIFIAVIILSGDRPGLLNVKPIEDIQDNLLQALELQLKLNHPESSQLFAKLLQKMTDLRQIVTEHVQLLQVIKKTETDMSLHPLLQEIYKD
Description: as §1, §2, §3, §4, §5, §6

[3] = biological target: T3, hPPARα (Homo sapiens, UniProt Q07869); assay: Gal4-hPPARα chimera transactivation in COS-7 cells (luciferase); type: cell-based; conditions: induction factor standardised to an internal reference, read-out: % hGal4-PPAR transactivation (10 μM) alpha
T3 construct: fragments of DNA amplified by PCR corresponding to the DEF domains of the human PPARα, PPARγ PPARδ nuclear receptors; expressed in transfected cells; host or cells: COS-7 (monkey kidney fibroblast line)
T3 sequence (Q07869 239-466 limits assumed): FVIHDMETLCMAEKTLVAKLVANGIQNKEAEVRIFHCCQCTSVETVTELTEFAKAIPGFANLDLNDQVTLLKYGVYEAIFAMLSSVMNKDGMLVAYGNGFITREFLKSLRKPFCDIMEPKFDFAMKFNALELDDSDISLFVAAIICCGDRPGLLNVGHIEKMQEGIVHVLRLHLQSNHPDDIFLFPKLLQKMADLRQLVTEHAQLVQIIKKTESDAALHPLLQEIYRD
Description: as §1, §2, §3, §4, §5, §6

[4] = biological target: T4, ATP-dependent potassium channels (K+ATP) (Rattus norvegicus, UniProt Q09429); assay: [3H]glibenclamide binding to ATP-dependent potassium channels of rat cerebral cortex; conditions: for inhibition at 0.3 µM: 1 h, 300 nM, specific displacement of [3H]glibenclamide 0.1 nM, read-out: KATP binding (300 nM)
T4 construct: the potassium channels derive from a rat's cerebral cortex; tissue CEREP; host or cells: rat cerebral cortex
T4 sequence (Q09429 whole entry): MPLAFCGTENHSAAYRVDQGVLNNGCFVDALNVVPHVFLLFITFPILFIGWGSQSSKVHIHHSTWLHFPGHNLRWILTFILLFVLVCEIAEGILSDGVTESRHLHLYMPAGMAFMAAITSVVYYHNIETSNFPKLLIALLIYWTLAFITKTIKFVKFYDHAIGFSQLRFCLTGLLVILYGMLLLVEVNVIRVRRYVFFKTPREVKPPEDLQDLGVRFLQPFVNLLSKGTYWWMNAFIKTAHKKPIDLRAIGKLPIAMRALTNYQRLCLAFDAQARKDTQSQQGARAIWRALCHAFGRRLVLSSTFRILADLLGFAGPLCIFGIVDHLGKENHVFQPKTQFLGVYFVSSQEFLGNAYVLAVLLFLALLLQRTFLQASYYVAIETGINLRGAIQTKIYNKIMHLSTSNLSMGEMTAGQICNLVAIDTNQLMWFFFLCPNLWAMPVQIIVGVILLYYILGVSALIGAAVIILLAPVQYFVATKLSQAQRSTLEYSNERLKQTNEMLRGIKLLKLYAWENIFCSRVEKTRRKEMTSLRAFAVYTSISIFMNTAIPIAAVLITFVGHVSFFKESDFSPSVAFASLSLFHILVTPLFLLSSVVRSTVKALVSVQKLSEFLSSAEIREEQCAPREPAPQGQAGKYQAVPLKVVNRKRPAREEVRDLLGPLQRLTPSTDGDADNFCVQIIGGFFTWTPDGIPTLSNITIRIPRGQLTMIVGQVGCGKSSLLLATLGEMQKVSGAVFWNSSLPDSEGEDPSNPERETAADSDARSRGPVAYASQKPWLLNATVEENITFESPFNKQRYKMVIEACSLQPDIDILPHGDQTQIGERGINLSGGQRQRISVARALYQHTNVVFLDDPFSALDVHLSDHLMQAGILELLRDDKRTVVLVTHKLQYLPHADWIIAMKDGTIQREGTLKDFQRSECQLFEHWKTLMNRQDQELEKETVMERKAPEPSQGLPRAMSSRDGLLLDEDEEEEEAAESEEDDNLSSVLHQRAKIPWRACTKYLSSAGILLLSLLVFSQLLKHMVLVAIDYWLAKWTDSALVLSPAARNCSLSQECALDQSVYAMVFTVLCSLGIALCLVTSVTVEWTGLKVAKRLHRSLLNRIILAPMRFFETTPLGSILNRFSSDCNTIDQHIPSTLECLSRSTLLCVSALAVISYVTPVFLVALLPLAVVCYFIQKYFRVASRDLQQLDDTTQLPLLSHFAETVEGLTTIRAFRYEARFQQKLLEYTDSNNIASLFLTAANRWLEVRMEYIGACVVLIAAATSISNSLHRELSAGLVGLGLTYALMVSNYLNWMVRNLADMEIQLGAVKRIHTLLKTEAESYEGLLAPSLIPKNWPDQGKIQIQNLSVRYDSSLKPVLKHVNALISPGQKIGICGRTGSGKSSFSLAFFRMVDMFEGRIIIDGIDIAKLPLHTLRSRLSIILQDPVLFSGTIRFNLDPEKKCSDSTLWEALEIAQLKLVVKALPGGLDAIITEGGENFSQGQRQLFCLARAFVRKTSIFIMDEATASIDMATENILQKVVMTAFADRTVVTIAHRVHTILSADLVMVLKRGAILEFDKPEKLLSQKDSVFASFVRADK
T4 sequence (P70673 whole entry partner): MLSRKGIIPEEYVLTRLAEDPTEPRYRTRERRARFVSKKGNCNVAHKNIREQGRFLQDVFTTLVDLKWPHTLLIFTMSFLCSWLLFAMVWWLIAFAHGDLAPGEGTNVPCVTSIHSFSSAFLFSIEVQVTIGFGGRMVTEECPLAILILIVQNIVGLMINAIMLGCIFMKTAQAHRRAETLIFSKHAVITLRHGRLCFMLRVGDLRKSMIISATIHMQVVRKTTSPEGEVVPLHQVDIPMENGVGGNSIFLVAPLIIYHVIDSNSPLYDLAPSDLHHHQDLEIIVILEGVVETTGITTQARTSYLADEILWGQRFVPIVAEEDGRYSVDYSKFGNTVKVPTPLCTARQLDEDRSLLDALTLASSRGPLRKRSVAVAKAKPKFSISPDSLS
Description: The results shown reflect the specific affinity of the inventive compounds on the ATP-dependent (K^+ATP) potassium channels. The specific binding measured corresponds to the difference between the total binding and the non-specific binding determined in the presence of an excess of non-marked reference ligand (glibenclamide 1 μM). The inventive compounds were tested at doses between 3 and 300 nM: the higher the percentage measured, the stronger the affinity of the compound for the ATP-dependent potassium channels.
The binding test was carried out at CEREP (Celle L'Evescault, France (86)) according to a protocol inspired by Angel et al. (Angel and Bidet 1991): the potassium channels derive from a rat's cerebral cortex and the reference compound is [^3H]glibenclamide at 0.1 nM. The protocol consists of incubation at 22° C. for one hour.

Structure (SMILES)	activation at 10 µM [1] [%]	activation at 10 µM [2] [%]	activation at 10 µM [3] [%]	inhibition at 0.3 µM [4] [%]	IC50 ([4]; FIG. 2) [nM]
CC(C)(Oc1ccc(CC(=O)NC(Cc2ccccc2)c2ccccc2N2CCCCC2)cc1)C(=O)O (stereo not drawn) [Compound 7, 2-[4-[1-(2-phenyl-1-(2-(1-piperidinyl)phenyl)ethyl)aminocarbonylmethyl]phenoxy]-2-methylpropanoic acid]	< 10	34	40	71	
CCCCC(NC(=O)Cc1ccc(OC(C)(C)C(=O)O)cc1)c1ccccc1N1CCCCC1 (stereo not drawn) [Compound 10, 2-[4-[1-(1-(2-(1-piperidinyl)phenyl)pentyl)aminocarbonylmethyl]phenoxy]-2-methylpropanoic acid]	< 10	49	11		63
CC(C)CC(NC(=O)Cc1ccc(OC(C)(C)C(=O)O)cc1)c1ccc(C(F)(F)F)cc1N1CCCCC1 (stereo not drawn) [Compound 21, 2-[4-[1-(3-methyl-1-(2-(1-piperidinyl)-4-(trifluoromethyl)phenyl)butyl)aminocarbonylmethyl]phenoxy]-2-methylpropanoic acid]	24	25	< 10	68	
CC(C)CC(NC(=O)Cc1ccc(OCCCC(C)(C)C(=O)O)cc1)c1ccccc1N1CCCCC1 (stereo not drawn) [Compound 28, 5-[4-[1-(3-methyl-1-(2-(1-piperidinyl)phenyl)butyl)aminocarbonylmethyl]phenoxy]-2,2-dimethylpentanoic acid]	< 10	17	35	30	
CC(C)CC(C(=O)NCc1ccc(OC(C)(C)C(=O)O)cc1)c1ccccc1N1CCCCC1 (stereo not drawn) [Compound 32, 2-[4-[1-(3-methyl-1-(2-(1-piperidinyl)phenyl)butyl)carbonylaminomethyl]phenoxy]-2-methylpropanoic acid]	< 10	25	< 10	93	
CCCCC(NC(=O)Cc1ccc(OC(C)(C)C(=O)O)cc1)c1ccc(Br)cc1N1CCCCC1 (stereo not drawn) [Compound 33, 2-[4-[1-(1-(2-(1-piperidinyl)-4-(bromo)phenyl)pentyl)aminocarbonylmethyl]phenoxy]-2-methylpropanoic acid]	23	42	< 10	51	
CC(C)CC(NC(=O)C(C)c1ccc(OC(C)(C)C(=O)O)cc1)c1ccccc1N1CCCCC1 (stereo not drawn) [Compound 34, 2-[4-[1-methyl-1-[1-(3-methyl-1-(2-(1-piperidinyl)phenyl)butyl)aminocarbonyl]methyl]phenoxy]-2-methylpropanoic acid]	< 10	30	< 10	81	
CCCCC(NC(=O)Cc1ccc(OC(C)(C)C(=O)O)cc1)c1cccc(F)c1N1CCCCC1 (stereo not drawn) [Compound 45, 2-[4-[1-(1-(3-fluoro-2-(1-piperidinyl)phenyl)pentyl)aminocarbonylmethyl]phenoxy]-2-methylpropanoic acid]	< 10	62	31	66	
CCCCC(NC(=O)Cc1ccccc1OCCCC(C)(C)C(=O)O)c1ccccc1N1CCCCC1 (stereo not drawn) [Compound 53, 5-[2-[1-(1-(2-(1-piperidinyl)phenyl)pentyl)aminocarbonylmethyl]phenoxy]-2,2-dimethylpentanoic acid]	< 10	40	< 10	25	
CCCCC(NC(=O)Cc1ccc(OC(C)(C)C(=O)O)cc1)c1ccccc1OC (stereo not drawn) [Compound 54, 2-[4-[1-(1-(2-(methoxy)phenyl)pentyl)aminocarbonylmethyl]phenoxy]-2-methylpropanoic acid]	< 10	30	< 10	79	
Cc1cccc(CC(NC(=O)Cc2ccc(OC(C)(C)C(=O)O)cc2)c2ccccc2N2CCCCC2)c1 (stereo not drawn) [Compound 55, 2-[4-[1-(2-(3-methylphenyl)-1-(2-(1-piperidinyl)phenyl)ethyl)aminocarbonylmethyl]phenoxy]-2-methylpropanoic acid]	< 10	33	< 10	27	
CC(C)CC(NC(=O)Cc1ccc(OCCCCC(C)(C)C(=O)O)cc1)c1ccccc1N1CCCCC1 (stereo not drawn) [Compound 57, 6-[4-[1-(3-methyl-1-(2-(1-piperidinyl)phenyl)butyl)aminocarbonylmethyl]phenoxy]-2,2-dimethylhexanoic acid]	< 10	< 10	29	18	
CC(C)CC(NC(=O)Cc1ccc(OC(C)(C)C(=O)NS(=O)(=O)C(F)(F)F)cc1)c1ccccc1N1CCCCC1 (stereo not drawn) [Compound 59, N-[trifluoromethylsulfonyl]-2-[4-[1-(3-methyl-1-(2-(1-piperidinyl)phenyl)butyl)aminocarbonylmethyl]phenoxy]-2-methylpropanamide]	< 10	< 10	22	73	
CCCCC(NC(=O)Cc1ccc(OC(C)(C)C(=O)NS(=O)(=O)c2ccccc2)cc1)c1ccccc1N1CCCCC1 (stereo not drawn) [Compound 61, N-[phenylsulfonyl]-2-[4-[1-(1-(2-(1-piperidinyl)phenyl)pentyl)aminocarbonylmethyl]phenoxy]-2-methylpropanamide]	< 10	< 10	20	23	
CCCCC(NC(=O)Cc1ccc(OC(C)(C)C(=O)NS(=O)(=O)Cc2ccccc2)cc1)c1ccccc1N1CCCCC1 (stereo not drawn) [Compound 63, N-[benzylsulfonyl]-2-[4-[1-(1-(2-(1-piperidinyl)phenyl)pentyl)aminocarbonylmethyl]phenoxy]-2-methylpropanamide]	< 10	< 10	26	67	

From US20060079696A1, “Substituted compounds derived from N-(benzyl)phenylacetamide, preparation and uses” (GENFIT, priority 2004, published 2006)
